Results from patent US20240245673A1, “Papain-like protease (PLpro) inhibitors” (Pfizer Inc., priority 2022, published 2024).

Target: SARS-CoV-2 Papain like protease (PLpro) (Severe acute respiratory syndrome coronavirus 2 (2019-nCoV) (SARS-CoV-2), UniProt P0DTD1)
Test: Papain Like Protease (PLpro) biochemical assay with profluorogenic substrate Z-RLRGG-AMC
Details: IC50 (μM), SARS-CoV-2 PLpro 6.25 nM, 25 μM Z-RLRGG-AMC substrate, 60 minute reaction

Q: Cc1ccc(CN)cc1C(=O)NC(C)c1cc(-n2ccnc2)nc2ccccc12 (stereo not shown) [Example 36, N-(1-(2-(1H-imidazol-1-yl)quinolin-4-yl)ethyl)-5-(aminomethyl)-2-methylbenzamide] was tested. Which IC50 did it give?
A: Its IC50 is 0.21 µM.

Q: How did the IC50 turn out when Cc1ccc(N2CC3CC(C2)N3)cc1C(=O)NC1(c2cc(-c3cnn(C)c3)nc3ccccc23)CC1 [Example 289, 5-(3,6-diazabicyclo[3.1.1]heptan-3-yl)-2-methyl-N-(1-(2-(1-methyl-1H-pyrazol-4-yl)quinolin-4-yl)cyclopropyl)benzamide] was run?
A: The IC50 was 0.001 µM.

Same assay, conditions: SARS-CoV-2 PLpro 6.25 nM, 25 μM Z-RLRGG-AMC substrate, 60 minute reaction; read-out: IC50

Q: How did the IC50 turn out when COCCn1cc(-c2cc(C(C)NC(=O)c3ccccc3C)c3ccccc3n2)cn1 (stereo not shown) [Example 112, N-(1-{2-[1-(2-methoxyethyl)-1H-pyrazol-4-yl]quinolin-4-yl}ethyl)-2-methylbenzamide] was run?
A: The IC50 was 0.294 µM.

Q: Which IC50 does the source give for Cc1cc(COCc2cocn2)ccc1C(=O)NC1(c2cc(-c3cc(C(=O)N(C)C)n[nH]3)cc3ncccc23)CC1 [Example 350, N,N-dimethyl-5-(5-(1-(2-methyl-4-((oxazol-4-ylmethoxy)methyl)benzamido)cyclopropyl)quinolin-7-yl)-1H-pyrazole-3-carboxamide] here?
A: Its IC50 is under 0.001 µM.

Q: For Cc1cc(C(=O)NCc2ncc[nH]2)ccc1C(=O)N[C@H](C)c1cc(-c2cnn(C)c2)nc2ccccc12 [Example 245], which IC50 is on record?
A: Its IC50 is 0.005 µM.

Q: Cc1ccccc1C(=O)NC(C)c1cc(NCc2cocn2)nc2ccccc12 (stereo not shown) [Example 138, 2-methyl-N-[1-(2-{[(1,3-oxazol-4-yl)methyl]amino}-quinolin-4-yl)ethyl]benzamide] was tested. Which IC50 did it give?
A: The IC50 was 0.944 µM.

Q: Which IC50 does the source give for Cc1cc(CC(=O)Nc2cscn2)ccc1C(=O)N[C@H](C)c1cc(-c2cnn(C)c2)nc2ccccc12 [Example 236, (R)-2-methyl-N-(1-(2-(1-methyl-1H-pyrazol-4-yl)quinolin-4-yl)ethyl)-4-(2-oxo-2-(thiazol-4-ylamino)ethyl)benzamide] here?
A: The IC50 was 0.003 µM.

Q: For Cc1ccc(N2CCN(C)CC2)cc1C(=O)NC1(c2cc(-c3cc(C(=O)N(C)C)c[nH]3)cc3ccccc23)CC1 [Example 277, N,N-dimethyl-5-(4-(1-(2-methyl-5-(4-methylpiperazin-1-yl)benzamido)cyclopropyl)naphthalen-2-yl)-1H-pyrrole-3-carboxamide], which IC50 is on record?
A: Its IC50 is 0.002 µM.

Q: For Cc1cc(COCc2cscn2)ccc1C(=O)NC1(c2cc(-c3cnn(CS(C)(=O)=O)c3)nc3ccccc23)CC1 [Example 341, 2-methyl-N-(1-(2-(1-((methylsulfonyl)methyl)-1H-pyrazol-4-yl)quinolin-4-yl)cyclopropyl)-4-((thiazol-4-ylmethoxy)methyl)benzamide], which IC50 is on record?
A: Its IC50 is under 0.001 µM.

Q: For Cc1ccc(N2C[C@H]3C[C@@H]2CN3C)cc1C(=O)N[C@H](C)c1cc(-c2cnn(C)c2)nc2ccccc12 (single isomer, unassigned) [Example 281, 2-methyl-N—((R)-1-(2-(1-methyl-1H-pyrazol-4-yl)quinolin-4-yl)ethyl)-5-((1R*,4R*)-5-methyl-2,5-diazabicyclo[2.2.1]heptan-2-yl)benzamide], which IC50 is on record?
A: Its IC50 is 0.003 µM.

Q: With Cc1cc(C(=O)NC2(c3cscn3)CC2)ccc1C(=O)N[C@H](C)c1cc(-c2cnn(C)c2)nc2ccccc12 [Example 314, (R)-2-methyl-N1-(1-(2-(1-methyl-1H-pyrazol-4-yl)quinolin-4-yl)ethyl)-N4-(1-(thiazol-4-yl)cyclopropyl)terephthalamide] as the compound, how does the IC50 read?
A: Its IC50 is 0.002 µM.

Q: How did the IC50 turn out when Cc1cc(CC(=O)Nc2nccs2)ccc1C(=O)N[C@H](C)c1cc(-c2cnn(C)c2)nc2ccccc12 [Example 238, (R)-2-methyl-N-(1-(2-(1-methyl-1H-pyrazol-4-yl)quinolin-4-yl)ethyl)-4-(2-oxo-2-(thiazol-2-ylamino)ethyl)benzamide] was run?
A: Its IC50 is 0.016 µM.

Q: Which IC50 does the source give for Cc1ccccc1C(=O)N[C@H](C)c1cc(-c2ccn[nH]2)nc2ccccc12 [Example 48, (R)—N-(1-(2-(1H-pyrazol-5-yl)quinolin-4-yl)ethyl)-2-methylbenzamide] here?
A: The IC50 was 0.28 µM.

Q: How did the IC50 turn out when Cc1cc(CC(=O)Nc2cncs2)ccc1C(=O)N[C@H](C)c1cc(-c2cnn(C)c2)nc2ccccc12 [Example 237, (R)-2-methyl-N-(1-(2-(1-methyl-1H-pyrazol-4-yl)quinolin-4-yl)ethyl)-4-(2-oxo-2-(thiazol-5-ylamino)ethyl)benzamide] was run?
A: The IC50 was 0.036 µM.

Q: With CCOC(=O)/C=C/C(=O)NNC(=O)CCc1ccccc1C(=O)N[C@H](C)c1cc(-c2cnn(C)c2)nc2ccccc12 [Example 232, ethyl (R,E)-4-(2-(3-(2-((1-(2-(1-methyl-1H-pyrazol-4-yl)quinolin-4-yl)ethyl)carbamoyl)phenyl)propanoyl)hydrazineyl)-4-oxobut-2-enoate] as the compound, how does the IC50 read?
A: Its IC50 is 0.003 µM.

Q: Which IC50 does the source give for COC[C@H](OCc1cocn1)c1ccc(C(=O)NC2(c3cc(-c4cnn(C)c4)cc4ncccc34)CC2)c(C)c1 (single isomer, unassigned) [Example 340] here?
A: Its IC50 is 0.002 µM.

Q: Cc1ccc(NC(=O)[C@H]2CCCCN2)cc1C(=O)N[C@H](C)c1cc(-n2ccnn2)nc2ccccc12 (single isomer, unassigned) [Example 30, (R)—N-(3-(((R*)-1-(2-(1H-1,2,3-triazol-1-yl)quinolin-4-yl)ethyl)carbamoyl)-4-methylphenyl)piperidine-2-carboxamide] was tested. Which IC50 did it give?
A: Its IC50 is 7.73 µM.

Q: For Cc1cc(COCc2cscn2)ccc1C(=O)NC1(c2cc(-c3cc(C(=O)N(C)CC(C)(C)O)n[nH]3)nc3ccccc23)CC1 [Example 357, N-(2-hydroxy-2-methylpropyl)-N-methyl-5-(4-(1-(2-methyl-4-((thiazol-4-ylmethoxy)methyl)benzamido)cyclopropyl)quinolin-2-yl)-1H-pyrazole-3-carboxamide], which IC50 is on record?
A: The IC50 was under 0.001 µM.

Q: How did the IC50 turn out when Cc1ccccc1C(=O)NC(C)c1cc(NCC2CCOCC2)nc2ccccc12 (stereo not shown) [Example 141, 2-methyl-N-[1-(2-{[(oxan-4-yl)methyl]amino}quinolin-4-yl)ethyl]benzamide] was run?
A: Its IC50 is 0.778 µM.

Q: Which IC50 does the source give for Cc1ccc(N2CCN(C)CC2)cc1C(=O)NC(C)c1cc(-c2cnn(C)c2)cc2ccccc12 (stereo not shown) [Example 73, 2-methyl-N-(1-(3-(1-methyl-1H-pyrazol-4-yl)naphthalen-1-yl)ethyl)-5-(4-methylpiperazin-1-yl)benzamide] here?
A: The IC50 was 0.022 µM.

Q: For Cc1ccc(CN)cc1C(=O)NC(C)c1cc(-c2cc(C(=O)N(C)C)c[nH]2)cc2ccccc12 (stereo not shown) [Example 72, 5-(4-(1-(5-(aminomethyl)-2-methylbenzamido)ethyl)naphthalen-2-yl)-N,N-dimethyl-1H-pyrrole-3-carboxamide], which IC50 is on record?
A: Its IC50 is 0.013 µM.

Q: With COC[C@H](OCc1cocn1)c1ccc(C(=O)NC2(c3cc(-c4cnn(C)c4)nc4ccccc34)CC2)c(C)c1 (single isomer, unassigned) [Example 338] as the compound, how does the IC50 read?
A: The IC50 was 0.003 µM.

Q: Cc1ccc(N2CC3CNCC3C2)cc1C(=O)N[C@H](C)c1cc(-c2cnn(C)c2)nc2ccccc12 (stereo partly shown) [Example 261] was tested. Which IC50 did it give?
A: Its IC50 is 0.021 µM.

Q: How did the IC50 turn out when COCCOc1cc([C@@H](C)NC(=O)c2ccccc2C)c2ccccc2n1 [Example 47, (R)-N-(1-(2-(2-methoxyethoxy)quinolin-4-yl)ethyl)-2-methylbenzamide] was run?
A: The IC50 was 3.13 µM.

Q: With Cc1cnc(N2CC3CCC2CN3)cc1C(=O)NC1(c2cc(-c3cnn(C)c3)nc3ccccc23)CC1 (stereo not shown) [Example 284, 2-(2,5-diazabicyclo[2.2.2]octan-2-yl)-5-methyl-N-(1-(2-(1-methyl-1H-pyrazol-4-yl)quinolin-4-yl)cyclopropyl)isonicotinamide] as the compound, how does the IC50 read?
A: The IC50 was 0.006 µM.
